Consider two compounds from patent publication US20230085307A1, “PYRIDAZINONE COMPOUND AND HERBICIDE” (NISSAN CHEMICAL CORPORATION, priority 2019, published 2023).

The test system of test [1] is lambsquarters. The test is described as follows: Test Example 4: herbicidal effect by soil treatment (Table 19, symbol O). Type of test: in vivo, lambsquarters (Chenopodium album). Conditions: amount of applied herbicide 320 g/ha. The essentials: (§1)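 Scoring uses the grading scale of an earlier test, three weeks post-application. Treatment consists of spraying a diluted emulsion formulation across the surface of sterilized diluvial soil in which seeds are buried near 1.5 cm deep; boxes are kept in a greenhouse between 25° C. and 30° C.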

Test [2] relates to Chinese sprangletop. The test is described as follows: Test Example 3: herbicidal effect by foliage application, Wagner pot (Table 18, symbol D). Type of test: in vivo, chinese sprangletop (Leptochloa chinensis). The essentials:
(§2)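 Plants were sown in alluvial soil held under 0.1–0.5 cm standing water and grown 14 days in a greenhouse at 25–30 °C. An emulsifiable formulation, water-diluted to the set dose, was then sprayed onto the foliage, and effects were scored three weeks later using previously defined criteria.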

Test [3] deals with persian speedwell. The test is described as follows: Test Example 4: herbicidal effect by soil treatment (Table 19, symbol R). Type of test: in vivo, Persian speedwell (Veronica persica). Conditions: amount of applied herbicide 320 g/ha. In a few lines:
as §1

Test [4] deals with windgrass. The test is described as follows: Test Example 4: herbicidal effect by soil treatment (Table 19, symbol L). Type of test: in vivo, windgrass (Apera spica-venti). The settings on record: amount of applied herbicide 320 g/ha. In a few lines: as §1
Test [5] relates to barnyard grass. The test is described as follows: Test Example 4: herbicidal effect by soil treatment (Table 19, symbol H). Format: in vivo, barnyard grass (Echinochloa crus-galli). Conditions: amount of applied herbicide 320 g/ha. In a few lines: as §1
Test [6] has as its system oval-leafed pondweed. The test is described as follows: Test Example 1: herbicidal activity, application before weed generation under submerged conditions (Table 16, symbol C). Type of test: in vivo, oval-leafed pondweed (Monochoria vaginalis). The essentials: (§3)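 Emulsion formulation, water-diluted to set dose, was put onto the flooded surface (4 cm depth, alluvial soil) the same day weeds were sown and 2.5-leaf rice transplanted. After 3 weeks at 25-30 °C under glass, each species was rated 0 (≤5% kill) to 5 (≥90% kill).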

The test system of test [7] is green foxtail. The test is described as follows: Test Example 4: herbicidal effect by soil treatment (Table 19, symbol G). Type of test: in vivo, green foxtail (Setaria viridis). Conditions: amount of applied herbicide 320 g/ha. The essentials: as §1
Test [8] concerns barnyard grass. The test is described as follows: Test Example 3: herbicidal effect by foliage application, Wagner pot (Table 18, symbol H). Format: in vivo, barnyard grass (Echinochloa crus-galli). In a few lines: as §2
The subject of test [9] is wild oat. The test is described as follows: Test Example 4: herbicidal effect by soil treatment (Table 19, symbol I). Type of test: in vivo, wild oat (Avena fatua). The settings on record: amount of applied herbicide 320 g/ha. In a few lines:
as §1

The subject of test [10] is rice flat sedge. The test is described as follows: Test Example 3: herbicidal effect by foliage application, Wagner pot (Table 18, symbol E). Type of test: in vivo, rice flat sedge (Cyperus iria). The essentials: as §2
Test [11] concerns redroot pigweed. The test is described as follows: Test Example 4: herbicidal effect by soil treatment (Table 19, symbol N). Type of test: in vivo, redroot pigweed (Amaranthus retroflexus). The settings on record: amount of applied herbicide 320 g/ha. In a few lines:
as §1

Test [12] has as its system blackgrass. The test is described as follows: Test Example 4: herbicidal effect by soil treatment (Table 19, symbol J). Type of test: in vivo, blackgrass (Alopecurus myosuroides). The settings on record: amount of applied herbicide 320 g/ha. In a few lines:
as §1

The subject of test [13] is velvetleaf. The test is described as follows: Test Example 4: herbicidal effect by soil treatment (Table 19, symbol M). Format: in vivo, velvetleaf (Abutilon theophrasti). Conditions: amount of applied herbicide 320 g/ha. In a few lines:
as §1

Test [14] has as its system Japanese bulrush. The test is described as follows: Test Example 1: herbicidal activity, application before weed generation under submerged conditions (Table 16, symbol B). Format: in vivo, Japanese bulrush (Schoenoplectus juncoides). In a few lines:
as §3

For test [15], the system named is chickweed. The test is described as follows: Test Example 4: herbicidal effect by soil treatment (Table 19, symbol P). Type of test: in vivo, common chickweed (Stellaria media). Conditions: amount of applied herbicide 320 g/ha. In a few lines: as §1
In test [16] the test system is southern crabgrass. The test is described as follows: Test Example 4: herbicidal effect by soil treatment (Table 19, symbol F). The settings on record: amount of applied herbicide 320 g/ha. Format: in vivo, southern crabgrass (Digitaria ciliaris). The essentials:
as §1

For test [17], the system named is late watergrass. The test is described as follows: Test Example 1: herbicidal activity, application before weed generation under submerged conditions (Table 16, symbol A). Type of test: in vivo, late watergrass (Echinochloa oryzicola). The essentials:
as §3

Test [18] deals with Italian ryegrass. The test is described as follows: Test Example 4: herbicidal effect by soil treatment (Table 19, symbol K). Type of test: in vivo, Italian ryegrass (Lolium multiflorum). Conditions: amount of applied herbicide 320 g/ha. The essentials: as §1
In test [19] the test system is wild oat. The test is described as follows: Test Example 5: herbicidal effect by foliage application, plastic box (Table 20, symbol I). Type of test: in vivo, wild oat (Avena fatua). The settings on record: foliage application, 320 g/ha, three weeks after application. The essentials:
(§4)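 Post-emergence foliar test in sterilized diluvial soil. Compound applied as water-diluted emulsion at a predetermined rate to 14-day-old plants; evaluation at three weeks.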

Test [20] has as its system persian speedwell. The test is described as follows: Test Example 5: herbicidal effect by foliage application, plastic box (Table 20, symbol R). The settings on record: foliage application, 320 g/ha, three weeks after application. Type of test: in vivo, Persian speedwell (Veronica persica). The essentials: as §4
Test [21] has as its system barnyard grass. The test is described as follows: Test Example 5: herbicidal effect by foliage application, plastic box (Table 20, symbol H). Format: in vivo, barnyard grass (Echinochloa crus-galli). Conditions: foliage application, 320 g/ha, three weeks after application. In a few lines:
as §4

In test [22] the test system is velvetleaf. The test is described as follows: Test Example 5: herbicidal effect by foliage application, plastic box (Table 20, symbol M). Format: in vivo, velvetleaf (Abutilon theophrasti). Conditions: foliage application, 320 g/ha, three weeks after application. In a few lines:
as §4

In test [23] the test system is lambsquarters. The test is described as follows: Test Example 5: herbicidal effect by foliage application, plastic box (Table 20, symbol O). Conditions: foliage application, 320 g/ha, three weeks after application. Format: in vivo, lambsquarters (Chenopodium album). The essentials:
as §4

The subject of test [24] is green foxtail. The test is described as follows: Test Example 5: herbicidal effect by foliage application, plastic box (Table 20, symbol G). Type of test: in vivo, green foxtail (Setaria viridis). Conditions: foliage application, 320 g/ha, three weeks after application. In a few lines:
as §4

In test [25] the test system is southern crabgrass. The test is described as follows: Test Example 5: herbicidal effect by foliage application, plastic box (Table 20, symbol F). Format: in vivo, southern crabgrass (Digitaria ciliaris). The settings on record: foliage application, 320 g/ha, three weeks after application. In a few lines:
as §4

In test [26] the test system is Italian ryegrass. The test is described as follows: Test Example 5: herbicidal effect by foliage application, plastic box (Table 20, symbol K). Conditions: foliage application, 320 g/ha, three weeks after application. Format: in vivo, Italian ryegrass (Lolium multiflorum). The essentials:
as §4

Test [27] concerns blackgrass. The test is described as follows: Test Example 5: herbicidal effect by foliage application, plastic box (Table 20, symbol J). Format: in vivo, blackgrass (Alopecurus myosuroides). Conditions: foliage application, 320 g/ha, three weeks after application. In a few lines: as §4
[28] abbreviates: amount of applied herbicide 320 g/ha.

With `CCCC(=O)Oc1c(C)nn(C)c(=O)c1-c1c(-c2cnccc2Cl)sc2ccc(F)cc12` [2-386], the “herbicidal effect, O: lambsquarters” value in test [1] was 4 (Herbicidal rate of 70% or more and less than 90%). For the same compound, the “herbicidal effect on D: Chinese sprangletop” value in [2] (setting [28]) is 4 (Herbicidal rate of 70% or more and less than 90%). Moreover, the “herbicidal effect, R: persian speedwell” value in test [3] was 5 (Herbicidal rate of 90% or more (almost completely withered)). Besides, the “herbicidal effect, L: windgrass” value in [4] is 2 (Herbicidal rate of 20% or more and less than 40%). In addition, the “herbicidal effect, H: barnyard grass” value in test [5] is 4 (Herbicidal rate of 70% or more and less than 90%). Further, the “Herbicidal effect on C: oval-leafed pondweed (grade 0-5)” value in test [6] (320 g/ha applied herbicide) is reported as 0 (Herbicidal rate of 5% or less (almost no effect)). Moreover, in test [7], the “herbicidal effect, G: green foxtail” value is 3 (Herbicidal rate of 40% or more and less than 70%). In addition, the “herbicidal effect on H: barnyard grass” value in test [8] (setting [28]) is on record as 5 (Herbicidal rate of 90% or more (almost completely withered)). In addition, the “herbicidal effect, I: wild oat” value in test [9] was 1 (Herbicidal rate of 5% or more and less than 20%). Also, the “herbicidal effect on E: rice flat sedge” value in test [10] (setting [28]) was 3 (Herbicidal rate of 40% or more and less than 70%). In addition, the “herbicidal effect, N: redroot pigweed” value in test [11] was 4 (Herbicidal rate of 70% or more and less than 90%). Also, the “herbicidal effect, J: blackgrass” value in test [12] is reported as 0 (Herbicidal rate of 5% or less (almost no effect)). The “herbicidal effect, M: velvetleaf” value in [13] is 1 (Herbicidal rate of 5% or more and less than 20%). Further, the “Herbicidal effect on B: Japanese bulrush (grade 0-5)” value in [14] (320 g/ha applied herbicide) is 0 (Herbicidal rate of 5% or less (almost no effect)). Also, the “herbicidal effect, P: chickweed” value in [15] was 5 (Herbicidal rate of 90% or more (almost completely withered)). The “herbicidal effect, F: southern crabgrass” value in test [16] is 4 (Herbicidal rate of 70% or more and less than 90%). Further, the “Herbicidal effect on A: late watergrass (grade 0-5)” value in [17] (320 g/ha applied herbicide) is 2 (Herbicidal rate of 20% or more and less than 40%). The “herbicidal effect, K: Italian ryegrass” value in [18] is 4 (Herbicidal rate of 70% or more and less than 90%).

Consider `CCOc1cc(F)ccc1-c1sc2cc(OC)c(Cl)cc2c1-c1c(O)c(C)nn(C)c1=O` [5-077], for which the “herbicidal effect on wild oat (I)” value in [19] is 3 (Herbicidal rate of 40% or more and less than 70%). The “O: lambsquarters, herbicidal effect grade” value in test [1] was 3 (Herbicidal rate of 40% or more and less than 70%). For the same compound, the “herbicidal effect on Chinese sprangletop (D)” value in test [2] (320 g/ha) is 2 (Herbicidal rate of 20% or more and less than 40%). The “R: persian speedwell, herbicidal effect grade” value in test [3] is 0 (Herbicidal rate of 5% or less (almost no effect)). The “L: windgrass, herbicidal effect grade” value in test [4] was 0 (Herbicidal rate of 5% or less (almost no effect)). Moreover, the “H: barnyard grass, herbicidal effect grade” value in test [5] was 0 (Herbicidal rate of 5% or less (almost no effect)). The “Herbicidal effect, C: oval-leafed pondweed” value in test [6] (setting [28]) was 4 (Herbicidal rate of 70% or more and less than 90%). Further, the “herbicidal effect on persian speedwell (R)” value in [20] was 4 (Herbicidal rate of 70% or more and less than 90%). Further, the “herbicidal effect on barnyard grass (H)” value in test [21] and in [8] (320 g/ha) was 5 (Herbicidal rate of 90% or more (almost completely withered)) in each case. Besides, the “G: green foxtail, herbicidal effect grade” value in [7] is on record as 0 (Herbicidal rate of 5% or less (almost no effect)). Also, in test [22], the “herbicidal effect on velvetleaf (M)” value was 3 (Herbicidal rate of 40% or more and less than 70%). In addition, the “I: wild oat, herbicidal effect grade” value in test [9] is given as 0 (Herbicidal rate of 5% or less (almost no effect)). Besides, in test [23], the “herbicidal effect on lambsquarters (O)” value is recorded as 5 (Herbicidal rate of 90% or more (almost completely withered)). Also, the “herbicidal effect on green foxtail (G)” value in test [24] is listed as 5 (Herbicidal rate of 90% or more (almost completely withered)). In addition, the “herbicidal effect on rice flat sedge (E)” value in test [10] (320 g/ha) is 4 (Herbicidal rate of 70% or more and less than 90%). For the same compound, the “herbicidal effect on southern crabgrass (F)” value in test [25] is 5 (Herbicidal rate of 90% or more (almost completely withered)). The “herbicidal effect on Italian ryegrass (K)” value in test [26] is recorded as 0 (Herbicidal rate of 5% or less (almost no effect)). Moreover, the “N: redroot pigweed, herbicidal effect grade” value in test [11] is 3 (Herbicidal rate of 40% or more and less than 70%). Moreover, in [12], the “J: blackgrass, herbicidal effect grade” value was 0 (Herbicidal rate of 5% or less (almost no effect)). Besides, in test [13], the “M: velvetleaf, herbicidal effect grade” value was 0 (Herbicidal rate of 5% or less (almost no effect)). For the same compound, the “Herbicidal effect, B: Japanese bulrush” value in test [14] (setting [28]) is given as 0 (Herbicidal rate of 5% or less (almost no effect)). Moreover, the “P: chickweed, herbicidal effect grade” value in test [15] is recorded as 0 (Herbicidal rate of 5% or less (almost no effect)). Besides, in [16], the “F: southern crabgrass, herbicidal effect grade” value was 2 (Herbicidal rate of 20% or more and less than 40%). For the same compound, the “Herbicidal effect, A: late watergrass” value in [17] (setting [28]) was 2 (Herbicidal rate of 20% or more and less than 40%). The “herbicidal effect on blackgrass (J)” value in test [27] was 3 (Herbicidal rate of 40% or more and less than 70%). Besides, in test [18], the “K: Italian ryegrass, herbicidal effect grade” value is reported as 0 (Herbicidal rate of 5% or less (almost no effect)).
